Measured values from PubChem BioAssay (NCI).
Where “and” joins values, the source holds several entries; their conditions need not be identical. Equal values may be shown once.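 96-well plates; 48 h exposure; 5 concentrations. Endpoints by linear interpolation between flanking doses. Not reached: highest tested concentration assigned. GI50 marks 50% less growth. TGI: total growth inhibition.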

Columns and labels:
Test in all cases: inhibition of tumour cell growth, NCI panel, 48 h
[1] = tested on: 786-0 renal
[2] = tested on: A498 renal
[3] = tested on: COLO 205 colon
[4] = tested on: DMS 114 small cell lung
[5] = tested on: KM20L2 colon
[6] = tested on: OVCAR-4 ovarian
[7] = tested on: OVCAR-8 ovarian
[8] = tested on: SR leukemia
[9] = tested on: SW-620 colon
[10] = tested on: TK-10 renal

SMILES	TGI [1]	TGI [2]	TGI [3]	TGI [4]	TGI [5]	TGI [6]	TGI [7]	TGI [8]	TGI [9]	TGI [10]	GI50 [1]	GI50 [3]	GI50 [7]	GI50 [8]	GI50 [9]	GI50 [10]	GI50 [2]	GI50 [5]	GI50 [6]	GI50 [4]
C/C(=N\NC(=S)N1CC2CCC(CC2)C1)c1nccs1	7.55 µM	14.3 µM	16 µM	0.218 µM	1.35 µM	17.6 µM	13.1 µM	6.91 µM	18.9 µM	15.9 µM	–	–	–	–	–	–	–	–	–	–
C=C(C)C(O)CCC1(C)C=Cc2c(c(C)cc3c2[nH]c2ccccc23)O1 (stereo not drawn)	10.8 µM and 14.2 µM	26.6 µM	9.81 µM and 6.13 µM	25 µM	7.57 µM	30.8 µM	25 µM and 22.9 µM	25 µM and 16.5 µM	10.2 µM and 18.7 µM	> 25 µM and 27 µM	3.88 µM	2.43 µM	10.7 µM	4.43 µM	5.08 µM	14 µM	–	–	–	–
CCOC(=O)C12CCCC1(O)N(NC(=O)OC(C)(C)C)C(C)=C2C(=O)OC (stereo not drawn)	> 100 µM	> 100 µM	> 100 µM	> 100 µM	> 100 µM	> 100 µM	> 100 µM	–	> 100 µM	> 100 µM	–	–	–	–	–	–	–	–	–	–
CCc1ccccc1NC(=O)C1=C(C)NC(C)=C(C(=O)Nc2ccccc2CC)C1c1ccccc1Cl	> 100 µM	> 100 µM	> 100 µM	> 100 µM	> 100 µM	> 100 µM	> 100 µM	–	> 100 µM	> 100 µM	–	–	–	–	–	–	–	–	–	–
O=C(O)CCCSC(=O)Nc1ccc(N=Nc2ccccc2)cc1	> 100 µM	> 100 µM	> 100 µM	> 100 µM	> 100 µM	> 100 µM	> 100 µM	> 100 µM	> 100 µM	> 100 µM	–	–	–	–	–	–	–	–	–	–
CCOC(=O)c1nn2c(nc1=O)sc1ccc3ccccc3c12	> 100 µM	–	> 100 µM	> 100 µM	> 100 µM	> 100 µM	> 100 µM	> 100 µM	> 100 µM	> 100 µM	–	–	–	–	–	–	–	–	–	–
CN(/N=C/c1cccc2cccnc12)c1ccc([N+](=O)[O-])cc1[N+](=O)[O-]	35.8 µM	43.7 µM	> 100 µM	> 61.9 µM	> 100 µM	> 70.3 µM	> 100 µM	–	> 100 µM	54 µM	–	–	–	–	–	–	–	–	–	–
COC1=C(N)C(=O)c2nc(C)ccc2C1=O	3.94 µM	3.57 µM	3.23 µM	3.53 µM	5.07 µM	3.66 µM	12.4 µM	> 24 µM	3.36 µM	16.4 µM	–	–	–	–	–	–	–	–	–	–
N.N.N.N.[Co+3].[N-]=[N+]=[N-].[N-]=[N+]=[N-].[N-]=[N+]=[N-]	> 100 µM	> 100 µM	> 100 µM	–	> 100 µM	> 100 µM	> 100 µM	–	> 100 µM	> 100 µM	> 100 µM	> 100 µM	> 100 µM	–	> 100 µM	> 100 µM	> 100 µM	> 100 µM	> 100 µM	–
O=C1CC(O)CC(=O)C1=C(O)CCCCCCCCCCc1ccccc1 (stereo not drawn)	> 100 µM	–	> 100 µM	> 100 µM	> 100 µM	> 100 µM	> 100 µM	> 100 µM	> 100 µM	> 100 µM	–	–	–	–	–	–	–	–	–	–
N.N.N.N.N.NC(=O)c1nn[n-]n1.[Cl-].[Co+3]	> 100 µM	–	> 100 µM	–	> 100 µM	> 100 µM	> 100 µM	> 100 µM	> 100 µM	> 100 µM	> 100 µM	> 100 µM	> 100 µM	> 100 µM	> 100 µM	> 100 µM	–	> 100 µM	> 100 µM	–
COC(=O)CC1C[C@H](C#N)N(C(=O)c2ccccc2)C[C@@H]1CC[N+](=O)[O-] (stereo partly drawn)	> 100 µM	> 100 µM	> 100 µM	–	> 100 µM	> 100 µM	> 100 µM	> 100 µM	> 100 µM	> 100 µM	–	–	–	–	–	–	–	–	–	–
CN(O)C(=O)SCC(NC(=O)CCC(N)C(=O)O)C(=O)NCC(=O)O (stereo not drawn)	> 2000 µM	> 2000 µM	> 2000 µM	> 2000 µM	> 2000 µM	> 2000 µM	> 2000 µM	> 2 µM	> 2000 µM	> 2000 µM	> 2000 µM	> 2000 µM	> 2000 µM	–	–	> 2000 µM	> 2000 µM	> 2000 µM	> 2000 µM	> 2000 µM
O=C(NCCCCNc1cccccc1=O)OCc1ccccc1	> 100 µM	> 100 µM	> 100 µM	> 100 µM	> 100 µM	> 100 µM	> 100 µM	–	> 100 µM	> 100 µM	–	–	–	–	–	–	–	–	–	–
CCN(CC)c1c(C(=O)/C=C/c2ccc(Cl)cc2)c(-c2ccccc2)nn(C)c1=O	3.5 µM	4.44 µM	4.01 µM	3.76 µM	7.84 µM	3.27 µM	3.1 µM	–	4.6 µM	4 µM	–	–	–	–	–	–	–	–	–	–
C=C1C(=O)O[C@@H]2C[C@@H](C)[C@@H]3C=CC(=O)[C@@]3(C)[C@@H](O)[C@H]12	5.4 µM	3.52 µM	5.11 µM	3.84 µM	3.87 µM	10.5 µM	5.71 µM	2.65 µM	2.59 µM	11.8 µM	–	–	–	–	–	–	–	–	–	–
N#CC1(C#N)C2(c3ccccc3)OC(c3ccccc3)(c3cc4ccccc4cc32)C1(C#N)C#N	21.3 µM	35.1 µM	18.1 µM	22.2 µM	26.4 µM	27.2 µM	26.8 µM	53.8 µM	9.72 µM	41 µM	–	–	–	–	–	–	–	–	–	–
